In BindingDB's records for patent US20240083921 (Reistone Biopharma Company, 2024):

Target: cAMP-specific 3',5'-cyclic phosphodiesterase 4B (Homo sapiens, UniProt Q07343)
Assay: In vitro PDE4B Enzyme Activity Detection Assay
Protocol: 1. Experimental MaterialsName Brand Cat No.PDE4B1 enzyme BPS 60041Trequinsin TOCRIS 2337/10IMAP FP IPP Explorer Kit Molecular Device R8124FAM-cAMP Molecular Device R7506OptiPlate -384 F PerkinElmer 6007279black assay plate 384 well Echo plate Labcyte PP-02002. Experimental StepsFirst, a stock solution of the compound at a concentration of 10 mM was prepared in a test tube with 90% DMSO (10% water), and it was used to prepare a series of dilutions with a dilution factor of 1:5 and final concentrations starting from 100 μM to as low as 0.05 nM. 0.2 μl of the compound solution was transferred into a 384-well reaction plate, and 0.2 μl of 100% DMSO was transferred into both the negative and positive controls. Then, 10 μl of 2 PDE4B1 enzyme solution (making a final concentration of 0.04 nM) was added to each well, and 10 μl of 1 reaction buffer instead of the enzyme solution was added to the zero enzyme activity control wells. The plate was centrifuged at 1,000 rpm for 1 min and incubated at room temperature for 15 min. […] After the incubation, the RLU data were read and the inhibition rate was calculated. The IC50 value was calculated from the concentration-inhibition fitted curve, wherein the maximum value refers to the reading of the DMSO control and the minimum value refers to the reading of the zero enzyme activity control.

Chain of cAMP-specific 3',5'-cyclic phosphodiesterase 4B (Q07343 whole entry): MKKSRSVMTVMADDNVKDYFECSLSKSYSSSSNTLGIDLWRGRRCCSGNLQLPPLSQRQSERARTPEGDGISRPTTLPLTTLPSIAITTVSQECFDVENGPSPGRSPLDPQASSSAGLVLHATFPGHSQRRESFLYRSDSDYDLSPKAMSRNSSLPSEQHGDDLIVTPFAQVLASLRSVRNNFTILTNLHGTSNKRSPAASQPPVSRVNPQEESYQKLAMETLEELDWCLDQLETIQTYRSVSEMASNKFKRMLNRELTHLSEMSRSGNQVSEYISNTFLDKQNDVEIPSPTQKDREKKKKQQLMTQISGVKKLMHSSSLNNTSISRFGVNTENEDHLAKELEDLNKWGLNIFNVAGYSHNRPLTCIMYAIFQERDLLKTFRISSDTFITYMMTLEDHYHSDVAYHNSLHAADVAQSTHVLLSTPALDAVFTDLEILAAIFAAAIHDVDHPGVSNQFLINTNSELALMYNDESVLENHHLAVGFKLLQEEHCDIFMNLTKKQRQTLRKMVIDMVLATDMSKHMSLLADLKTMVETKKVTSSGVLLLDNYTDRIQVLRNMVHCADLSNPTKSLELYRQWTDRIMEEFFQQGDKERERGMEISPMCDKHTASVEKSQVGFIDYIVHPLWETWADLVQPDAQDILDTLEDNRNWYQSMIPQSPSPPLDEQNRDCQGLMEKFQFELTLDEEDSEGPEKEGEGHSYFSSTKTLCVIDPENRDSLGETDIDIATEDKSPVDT

IC50 [nM]	Structure (SMILES)
0.22	COc1ccc(-c2cncc(C3COB(O)C3)c2)c2c1OC(C)(C)CO2 (configuration not stated) [US20240083921, Compound 8]
3.62	COc1ccc(-c2cncc([C@H]3COB(O)C3)n2)c2c1OC(C)(C)CC2 [US20240083921, Compound 11-2]
